Experimental data taken from PMC8252455, “Prediction of a clinically effective dose of THY1773, a novel V 1B receptor antagonist, based on preclinical data” (Biopharmaceutics & Drug Disposition, 2021).

How the values were obtained:
[1] = Physicochemical properties (Log P, pKa); conditions: experimental data
Description: TABLE 2 Human PBPK/RO model input parameters for THY1773 | column: Value

depressive-like behavior = system: depressive-like behavior; design: method as in Kamiya et al., 2020; conditions: ref Kamiya et al., 2020; cited from earlier work
[2] = system: anterior pituitary V1B receptor; design: method as in Kamiya et al., 2020; conditions: rats; ref Kamiya et al., 2020; cited from earlier work
[3] = Parallel artificial membrane permeability assay (PAMPA); format: in vitro ADME
Method: The membrane permeability of THY1773 was measured using a parallel artificial membrane permeability assay (PAMPA) Evolution instrument (Pion Inc.). A “sandwich” plate consisting of a donor bottom plate with stir bars and an acceptor filter plate was used for the experiment. A donor plate was prepared by the addition of THY1773 to diluted PRISMA HT at pH 6.2 (final concentration of 12.5 μmol/L). An acceptor plate was coated with GIT‐0 lipid solution, followed by the addition of acceptor sink buffer (pH 7.4). After incubation for 4 h at room temperature, the concentrations of THY1773 in the reference, donor, and acceptor solutions were measured with a UV plate reader. The apparent permeability (Papp) was calculated using the PAMPA Evolution software (version 3.1; Pion Inc.).

Prediction of human Vdss = assay: Prediction of human Vdss
Description: Human Vdss was also predicted by the two methods reported to be the best methods based on the prediction accuracy (Jones et al., 2011), which were Øie‐Tozer method (Obach et al., 1997) and rat–dog–human proportionality equation described (Wajima, Fukumura, Yano, & Oguma, 2003) by Equations (6) and (7), respectively: (6) Vdss[L/kg]=Vp×(1+RE/I)+Vp×fu×(Ve/Vp−RE/I)+Vr×fu/fu,t (7) log(Vdss,human)=0.07714×log(Vdss,rat)×log(Vdss,dog)+0.5147×log(Vdss,dog)+0.586 where fu,t is the fraction unbound in tissues, RE/I is the ratio of binding protein in the extracellular fluid to that in plasma, Ve, Vp, and Vr is the extracellular, plasma, and remaining fluid volume, respectively. Volumes and plasma protein levels were used as described by Obach et al. (1997).
The fold error of the difference between observed and predicted human PK parameters was calculated by dividing the predicted value by the observed value.

[4] = Metabolic stability in rat liver microsomes; format: in vitro ADME; conditions: 1 μmol/L
Method: The oxidative metabolism of THY1773 was evaluated in rat and dog liver microsomes. THY1773 (1 μmol/L) was incubated with pooled liver microsomes (0.25 mg protein/ml) in sodium–potassium phosphate buffer (pH 7.4) consisting of 100 mmol/L sodium phosphate, 100 mmol/L potassium chloride, 2.5 mmol/L magnesium chloride (MgCl2), 1.5 mmol/L glucose‐6‐phosphate (G‐6‐P), and 0.18 units/ml G‐6‐P dehydrogenase (G‐6‐PDH). The reactions were initiated by the addition of β‐nicotinamide–adenine dinucleotide phosphate, oxidized form (NADP^+, 0.16 mmol/L), and incubated for 10, 20, 30, 40, 50, and 60 min. […] The intrinsic clearance (CLint) was calculated by the substrate depletion method described by Naritomi et al. (2001).
Since the CLliver was underestimated in rats and dogs from CLint in liver microsomes, the ratio of observed in vivo CLint and predicted CLint was calculated as the empirical scaling factor (ESF) for the extrapolation of CLliver from in vitro data. […] The total plasma clearance (CLtotal) was calculated by Equation (4): (4) CLtotal=QH×fu×(CLint/fu,mic)/QH+(fu/Rb)×(CLint/fu,mic)+CLrenal where QH is hepatic blood flow, fu is the free fraction in plasma, fu,mic is the fraction unbound in HLMs, Rb is blood‐to‐plasma ratio, and CLrenal is renal clearance. The fu,mic value was calculated using the Simcyp population based simulator (Version 16 R1; Simcyp Ltd.). […]

pituitary V1B receptor = target: T1, pituitary V1B receptor (Homo sapiens, UniProt P47901); assay: Phase 1 RO study using PET; format: in vivo; conditions: unpublished data
T1 construct: from tissue; host or cells: pituitary gland of human subjects, in vivo PET
T1 sequence (P47901 1-424): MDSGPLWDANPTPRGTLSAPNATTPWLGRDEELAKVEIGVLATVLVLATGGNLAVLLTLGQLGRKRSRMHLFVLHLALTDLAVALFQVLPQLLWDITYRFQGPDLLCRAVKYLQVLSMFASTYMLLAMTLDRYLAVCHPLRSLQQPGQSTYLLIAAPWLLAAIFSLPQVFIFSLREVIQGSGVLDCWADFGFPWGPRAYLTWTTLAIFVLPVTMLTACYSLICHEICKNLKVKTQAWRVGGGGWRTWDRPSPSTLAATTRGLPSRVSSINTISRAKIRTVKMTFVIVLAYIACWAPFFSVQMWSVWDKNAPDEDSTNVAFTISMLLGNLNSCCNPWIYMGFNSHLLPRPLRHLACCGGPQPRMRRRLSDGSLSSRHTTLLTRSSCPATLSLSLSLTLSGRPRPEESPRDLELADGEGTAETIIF

[5] = Plasma protein binding by equilibrium dialysis, human plasma; format: in vitro ADME; conditions: PBPK input, experimental data
Method: The plasma protein binding of THY1773 in rats, dogs, and humans was evaluated by an equilibrium dialysis method using a 96‐well equilibrium dialysis plate (HTDialysis) with a 12–14 kDa cut‐off dialysis membrane. THY1773 was dissolved in dimethyl sulfoxide, and spiked with rat, dog, or human plasma at a final concentration of 300 ng/ml. An aliquot of plasma containing THY1773 and sodium phosphate buffer (pH 7.4) was added into the donor side and the receiver side of each designated well, respectively. After incubation for 6 h at a rate of 50 oscillation/min at 37°C in an air incubator, an aliquot of each side of each well was collected and mixed with acetonitrile/methanol (9:1, vol/vol) containing the IS. Each sample was centrifuged at 3974 × g for 10 min at 4°C to remove the precipitated proteins, and the resultant supernatants were subjected to LC‐MS/MS analysis. The protein binding (%) was calculated using the Boudinot formula (Boudinot & Jusko, 1984).

**Q.** With `CC(C)NC(=O)Cn1c(-c2cccc(Cl)c2)nn(-c2ccc(CCN3CCOCC3)cc2)c1=O` [THY1773] as the molecule, how does the “Log P” value [1] read?
**A.** Its value is 3.17.

**Q.** What about the pKa ([1]; monoprotic base) of the same molecule?
**A.** Its pKa is 6.85.

**Q.** And the “Effect on depressive-like behavior induced by repeated corticosterone injection” value (depressive-like behavior)?
**A.** Its value is “significantly improved”.

**Q.** And the “Occupancy of anterior pituitary V1B receptor after oral administration” value [2]?
**A.** The value was “dose‐dependently”.

**Q.** What about the “Papp in PAMPA” value ([3]; donor pH 6.2, 12.5 μmol/L, 4 h, room temperature) of the same molecule?
**A.** The value was 128.9 10^−6 cm/s.

**Q.** And the “Permeability in the gut (assessment from PAMPA)” value ([3]; pH 6.2)?
**A.** Its value is “high permeability”.

**Q.** What about the “Predicted human Vdss” value (Prediction of human Vdss; Rat–dog–human proportionality equation) of the same molecule?
**A.** Its value is 1.38 L/kg.

**Q.** What about the “Predicted human Vdss” value (Prediction of human Vdss; Single species scaling (rat)) of the same molecule?
**A.** Its value is 0.349 L/kg.

**Q.** And the “Predicted human Vdss” value (Prediction of human Vdss; Øie‐Tozer method)?
**A.** The value was 0.404 L/kg.

**Q.** What about the “CLint in liver microsomes” value [4] of the same molecule?
**A.** Its value is 22.0 μL/min/mg protein.

**Q.** And the “V1B RO at steady state (PET)” value (pituitary V1B receptor; 10 mg)?
**A.** Its value is 55.3%.

**Q.** What about the “V1B RO at steady state (PET)” value (pituitary V1B receptor; 50 mg) of the same molecule?
**A.** The value was 75.1%.

**Q.** And the “In vivo EC50 for V1B RO compared with in vitro Ki for human V1B receptor” value (pituitary V1B receptor; human PET)?
**A.** The value was “comparable (within twofold)”.

**Q.** What about the “Fraction unbound in plasma” value [5] of the same molecule?
**A.** Its value is 0.017.
